Assay results from PMC6856681, “Accumulation of Dietary S‐Methyl Cysteine Sulfoxide in Human Prostate Tissue” (Molecular Nutrition & Food Research, 2019).
Like-named read-outs stand apart in the source and are kept apart here. Values belong to the compound of their own block, whether it stands above or below them.

How the values were obtained:
[1] = Effect of heating the soup to boiling (microwave or conduction) on metabolite amount; type: physicochemical; conditions: heating to boiling by microwave or conduction vs unheated control
Source text: One portion of soup contained 280 ± 8.8 µmoles of glucoraphanin and 1513 ± 36.8 µmoles of SMCSO. The soup was provided frozen and heated up prior to consumption using a standard procedure. Heating either by microwave or conduction had no effect on SMCSO or glucoraphanin concentration (Figure 3).
Figure 3 The effect of heating soup to boiling on amount of a) glucoraphanin and b) SMCSO compared to unheated control by microwave or conduction heating. Columns are means of two independent samples.

[2] = parameters: method as in Sivapalan et al.19; conditions: human, ref Sivapalan et al.19, cited from earlier work
[3] = human, cited from earlier work
[4] = SAP study: metabolites in prostate biopsy tissue, peri-prostatic adipose tissue and urine after 4 weeks of broccoli soup supplementation vs control; type: in vivo, human
Source text: The SAP study (Figure 2) was a two-arm, parallel un-blinded, dietary-supplementation study, delivering a short, high-dose broccoli soup supplement to a habitual diet to men in the pre-biopsy window before a trans-perineal prostate biopsy (TPB). The primary aim was to determine whether supplementation of a diet with a broccoli soup would enhance the levels of […] and other broccoli-derived metabolites in the prostate of men scheduled for prostate biopsy. Eighteen men were randomized to either continue their normal diet (non-supplementation controls) or receive three portions of a glucoraphanin-rich broccoli soup (300 g) per week for a minimum of 4 weeks manufactured from a broccoli cultivar heterozygous for a Myb28^villosa allele, as previously described.19 On the study day, samples of whole blood, urine (following a digital rectal prostatic massage), prostate, and peri-prostatic adipose tissue were collected. The protocol was approved by the Human Research Governance Committee ([…] 01/2016) at Quadram Institute Bioscience and given full ethical approval by The East of England - Cambridge East Research Ethics Committee (ref: 16/EE/0054). The trial was registered on a publicly accessible database (ClinicalTrials.gov, NCT02821728). A sample of whole blood for genotyping was obtained via the intravenous cannula inserted for use by the anesthetist, thus avoiding additional venipuncture. After prostatic massage, a first-pass urine sample was collected. TPB was performed under general or spinal anesthesia with appropriate antibiotic prophylaxis. Once anesthetized, the patient was positioned supine with their legs elevated in stirrups. A template grid was placed on the skin of the perineum and the prostate visualized by trans-rectal ultrasound scan. […] For the SAP study, eight biopsy cores of prostate tissue were taken from a region of the prostate not known or suspected to contain cancer. Five of these were snap frozen for metabolite analyses, two in RNAlater, and one in methanol. Two additional cores were taken from peri-prostatic adipose tissue and snap frozen. Snap-frozen tissue cores were individually weighed on a high-sensitivity balance and transferred to screw-top tubes. Two hundred microliters of cold Milli- Q® water and […] of autoclaved, acid-washed 710 to 1180 μm glass beads were added to each tube. […] The samples were then placed on a revolving shaker for 15 min at 4 °C. The tubes were centrifuged at 17 000 × g for 10 min at 4 °C and 50 μL of supernatant transferred to a new Eppendorf. 10 μL of 50% trichloroacetic acid (TCA) were added to each sample to precipitate proteins. The centrifugation step was repeated and 50 μL of supernatant transferred to HPLC insert vials for analysis by LC-MS/MS. […] Stock solutions of 1 mg mL^-1 sulfate (Sigma) and SMCSO (LKT laboratories Inc.) were generated by dilution of weighed powder into Milli-Q water. Serial fivefold dilutions were performed in the relevant matrix to produce 6-point calibration curves from 10 to 0 μg mL^-1 on the day of analysis. Sulfate was quantified using an Agilent 6490 triple-quad LC-MS mass spectrometer (Agilent technologies) with Thermo Scientific Hypercarb, Porous Graphitic Carbon (PGC) (3 × 50 mm, 3 μm) column. Two microliters were injected from each sample, with separation by 1% formic acid in Milli-Q water (mobile phase A) and 1% formic acid in methanol (mobile phase B). The gradient started at 8% mobile phase B, increasing to 70% over 5.5 min and returned to 8% mobile phase B for re-equilibration over the last 9.5 min. The column temperature was maintained at 60 °C and the flow rate at 0.3 mL min^-1. […] SMCSO was quantified with the Agilent system described above. […] Snap-frozen tissue cores were individually weighed on a high-sensitivity balance and transferred to screw-top tubes. Two hundred microliters of cold Milli-Q water and […] of autoclaved, acid-washed 710 to 1180 μm glass beads (Sigma) were added to each tube. […]

[5] = read-out: Plasma C max; following a portion of cruciferous vegetables, transient; cited from earlier work
clinical = conditions: both, human, in vivo
Protocol: (§1) SMCSO was quantified with the Agilent system described above. Samples were injected at 2 µL eluted at a flow rate of 0.3 mL min^–1 on an Agilent SB‐AQ 1.8 µM (100 × 21 mm) C18 column. Separation was carried out using 10 mM ammonium acetate + 0.05% hetafluorobutyric acid in Milli‐Q water (mobile phase A) and 10 mM ammonium acetate + 0.05% hetafluorobutyric acid in 90% methanol (mobile phase B). The gradient started at 2% mobile phase B, increasing over 2 min to 5% B and returning to 2% mobile phase B for re‐equilibration over the last 2 min. The column was set at 20 °C due to the instability of SMCSO at high temperatures. The LC eluent flow was sprayed into the mass spectrometer interface without splitting. SMCSO ion was monitored by MS in MRM mode (m/z = 87.9) in positive polarity with ESI. The source parameters were: gas temperature 200 °C, gas flow 16 L min^–1, sheath gas temperature 300 °C with a sheath gas flow of 11 L min^–1, a nebulizer pressure of 50 psi, and capillary voltage 3500 V. Quantification was performed by peak area against the matrix‐matched standard curve, and identification by retention time and product ions.
(§2) To quantify the amount of SMCSO in plasma and urine from a single portion of soup, samples were analyzed from a previously described acute intervention study (NCT02300324).24 In this study, ten volunteers consumed a single portion of the identical soup to that used in the SAP study as described above as part of a three‐phase cross‐over study. Briefly, men and woman aged 18–65 years with a BMI between 19.5 and 35 kg m^–2 were enrolled into a dietary intervention trial undertaken at the Human Nutrition Unit of the Quadram Institute Bioscience Subjects were recruited on the basis of fasted (≥8 h) screening blood/urine samples and a completed health questionnaire. The study involved a 48‐h pre‐intervention diet restriction, a study day involving a 9‐h stay at the HNU and a sample collection the following morning (24 h post soup consumption) followed by a washout period of 2 weeks. […]

[6] = parameters: method as in PMID 14768973; conditions: cited from earlier work
[7] = SMCSO in tissue cores from radical prostatectomies of men not in a dietary study; type: in vivo, human; conditions: two cores from each of four glands
Source text: To further explore the presence of un‐metabolized SMCSO in the prostate gland of men who had not been within a dietary study, tissue samples were obtained from patients who had endoscopic extraperitoneal radical prostatectomies. Access to tissue and subsequent analyses were undertaken under ethical approval granted from the Faculty of Medicine and Health Sciences Research Ethics Committee of the University of East Anglia (FMHS 20122014–37). The prostate gland was removed from the abdominal cavity immediately after resection and rapidly biopsied after extraction to avoid ischemic artifacts using a standard core biopsy instrument, as previously described.23 The extracted whole prostatectomy specimen was placed on a surgical table, the apex and base of the gland were identified, and the prostate cut transversely (axial section) half way along the gland. With the use of the midline and the urethra as guides, biopsies were taken from the peripheral zones avoiding obvious tumor sites where feasible. Two cores were taken from each of four glands for analyses. The tissue was snap frozen and analyzed for the presence of SMCSO as described above.

[8] = Feeding of 35S-labeled SMCSO to human volunteers, recovery of label in urine (Waring et al.); type: in vivo
Source text: Previously, there has been only a single study of the metabolism of SMCSO in humans. Waring and colleagues describe the feeding of ^35S‐labeled SMCSO to human volunteers, and the recovery of 96% of the label in urine after 14 days, of which 40% was inorganic sulfate, indicating almost complete absorption of SMCSO (and/or its colonic microbiological derivatives).18 How SMCSO was metabolized is unknown, but it is likely that it was due to initial cysteine‐S‐conjugate β lyase activity by gut microbiome, as opposed to mammalian enzyme activity.

[9] = both, human, in vivo
Protocol: as §1, §2

[10] = human prostate biopsy cores, LC–MS/MS, both study arms

SMILES: C[S@@+]([O-])CCCC/C(=N/OS(=O)(=O)O)S[C@@H]1O[C@H](CO)[C@@H](O)[C@H](O)[C@H]1O [Glucoraphanin, 4‐Methylsulphinylbutyl glucosinolate]
Effect of heating on concentration in the soup [1]: no effect
Plasma C24h ([2]; 24 h after single 300 mL portion of broccoli soup): <10 nM
Plasma AUC ([2]; single 300 mL portion of broccoli soup (280 µmoles glucoraphanin)): 0.15 ± 0.08 µM·h
Cmax ([2]; single 300 mL portion of broccoli soup (280 µmoles glucoraphanin), read-out: Plasma Cmax): 30 ± 10 nM
Plasma Tmax ([2]; single 300 mL portion of broccoli soup): 2.23 ± 0.09 h
Urine: percentage excreted after 24 h ([3]; percentage of consumed glucoraphanin excreted intact, ref Sivapalan et al.19): 0.51 ± 0.24%
Urine: total excreted in 24 h ([3]; single 300 mL portion of broccoli soup (280 µmoles glucoraphanin), ref Sivapalan et al.19): 1.44 ± 0.66 µmol
Conversion of glucoraphanin to sulforaphane ([3]; value assumed for the dose-equivalent calculation): 8%
Detection in prostate tissue [4, 10]: No glucoraphanin or sulforaphane (and its thiol conjugates) was detected

SMILES: C[S+]([O-])CCCCN=C=S (centres unmarked) [Sulforaphane, sulforaphane]
Cmax [5]: < 1000 nM
Detection in prostate tissue [4, 10]: No glucoraphanin or sulforaphane (and its thiol conjugates) was detected
Sulforaphane in urine ([4]; human, participants in both arms): detected in urine from participants in both arms of the study

SMILES: O=S(=O)(O)O [sulfate]
Sulfate level in prostate tissue between the two dietary arms ([4]; human prostate biopsy cores): no significant difference

concentration at 24 h (clinical): 4660 ± 1520 nM
Tmax (clinical; Plasma Tmax): 1.4 h
Detection in prostate tissue ([4]; in vivo): present
Proportion of SMCSO absorbed from the GI tract ([8]; concluding statement): ~100%
Proportion of consumed SMCSO that is metabolized in vivo ([8]; inferred from this study together with Waring et al. 18): about 90%
Plasma concentration of SMCSO relative to that of glucoraphanin or sulforaphane [9]: about 1000 fold
SMILES: C[S@+]([O-])C[C@H](N)C(=O)O [SMCSO, (+)‐S‐methyl cysteine sulfoxide]
Effect of heating on concentration in the soup [1]: no effect
Share of recovered urinary label that was inorganic sulfate ([6]; human volunteers fed 35S-labeled SMCSO, 14 days): 40%
Recovery of 35S label in urine ([6]; human volunteers fed 35S-labeled SMCSO, after 14 days): 96%
Proportion of SMCSO absorbed (as un-metabolized SMCSO or unknown derivatives) ([6]; human): 97%
Detection of SMCSO in radical prostatectomy tissue samples [7]: detected in seven of the eight tissue samples
SMCSO level in peri-prostatic adipose tissue ([4]; in vivo): higher levels than in prostate tissue but without significant difference between the two groups
SMCSO level in urine, supplement group vs control ([4]; in vivo): higher in urine in the supplement group compared to the control
